Experimental findings from ChEMBL document CHEMBL5727000, “Carboxamide or sulfonamide substituted thiazoles and related derivatives as modulators for the orphan nuclear receptor ROR[γ]” (2019) are described below.

Each structure is given as a SMILES string.

This experiment can be described thus: RORgamma Gal4 Reporter Gene Assay (REN): Cells were incubated for additional 16 h before renilla (REN) luciferase activities were measured sequentially in the same cell extract using a Dual-Light-Luciferase-Assay system (Dyer et al., Anal. Biochem. 2000, 282:158). All experiments were done at least in triplicates. (In general: A reporter such as luciferase makes a cellular process visible.)
For orientation: IC50 means the concentration that gives 50% inhibition. Molecule `CC(C)(C)NS(=O)(=O)c1ccc(-c2oc(C(=O)NC3CCOCC3)nc2CC2CCCCC2)cc1C(C)(C)C` yielded a half-inhibitory concentration (IC50) of 501 nM.

On to `CC(C)(C)c1cc(-c2ccc(C(N)=O)cc2CC2CCCCC2)cc(C(C)(C)C)c1`, for which inhibition was half-maximal at 631 nM (IC50).

In the case of `CC(C)(C)c1cc(-c2cc(C(N)=O)ccc2CC2CCCCC2)cc(C(C)(C)C)c1`, inhibition was half-maximal at 501 nM (IC50).

Molecule `CC(C)(C)NS(=O)(=O)c1ccc(-c2sc(C(=O)N[C@H]3C[C@H](C(=O)O)C3)nc2C2CCCCC2)c2ccccc12` displayed an IC50 of 10 nM.

As for `CC(C)(C)NS(=O)(=O)c1ccc(-c2sc(C(=O)NC3CCS(=O)(=O)CC3)nc2CC2CCC2)c2ccccc12`, the IC50 turned out to be 3.98 nM.

Consider `CC(C)(C)c1cc(-c2nc(C(N)=O)sc2CC2CCCCC2)cc(C(C)(C)C)c1`, for which the IC50 turned out to be 1580 nM.

Consider `COCC(C)(C)NS(=O)(=O)c1ccc(-c2sc(C(=O)N3CC4(CCS(=O)(=O)CC4)C3)nc2CC2CCCCC2)c2ccccc12`, for which the IC50 was found to be 39.8 nM.

In turn, `CC(C)(C)NS(=O)(=O)c1ccc(-c2oc(C(=O)N[C@H]3C[C@H](C(=O)NS(C)(=O)=O)C3)nc2CC2CCCCC2)c2ccccc12` had an IC50 of 200 nM.

On to `CC(C)(O)c1cc(-c2sc(C(=O)N[C@H]3C[C@H](C(=O)O)C3)nc2CC2CCCCC2)cc(C2(C)CC2)c1`, for which the IC50 came out at 79.4 nM.

`CC1CC(C)CN(C(=O)c2nc(C(=O)NCC(C)(C)O)sc2-c2ccc(S(=O)(=O)NC(C)(C)C)c3ccccc23)C1` (centres undefined) came in with an IC50 of 126 nM.

`CC(C)(C)NS(=O)(=O)c1ccc(-c2sc(C(=O)N[C@H]3C[C@H](C(=O)O)C3)nc2CC2CCCCC2)c(C(F)F)c1Cl` came in with an IC50 of 3.16 nM.

`CC(C)(C)NS(=O)(=O)c1ccc(-c2sc(C(=O)NCCC(C)(C)C(=O)O)nc2CC2CCCCC2)cc1C(F)(F)F`: the IC50 amounted to 39.8 nM.

`CC(C)(C)NS(=O)(=O)c1ccc(-c2sc(C(=O)N[C@H]3C[C@H](C(=O)O)C3)nc2CC2CCCCC2)cc1C(F)(F)F`: the IC50 was determined as 10 nM.

`O=C(NC1CCS(=O)(=O)CC1)c1nc(CC2CCCCC2)c(-c2ccc(N3CCOCC3)c3ccccc23)s1` had a concentration for half-maximal inhibition (IC50) of 126 nM.

In turn, `CC1CCN(C(=O)c2nc(C(=O)N3CC4(CCS(=O)(=O)CC4)C3)sc2-c2ccc(S(=O)(=O)NC(C)(C)C)c3ccccc23)CC1` displayed an IC50 of 251 nM.

`CC(C)(C)NS(=O)(=O)c1ccc(-c2sc(C(=O)N[C@H]3C[C@H](C(=O)O)C3)nc2CC2CCCCC2)cc1C(C)(C)O` registered an IC50 of 10 nM.

`C[C@H](NS(=O)(=O)c1ccc(-c2sc(C(=O)NCC(C)(C)O)nc2CC2CCC2)c(Cl)c1)C(F)(F)F` gave an IC50 of 12.6 nM.

As to `CNS(=O)(=O)c1ccc(-c2sc(C(=O)N3CC4(CCS(=O)(=O)CC4)C3)nc2CC2CCCCC2)c2ccccc12`, half-maximal inhibition (IC50) was put at 251 nM.

Take `CC(C)(C)c1cc(-c2oc(C(N)=O)nc2CC2CCCCC2)cc(C(C)(C)C)c1`: the IC50 came out at 1580 nM.

`CC(C)(C)NS(=O)(=O)c1ccc(-c2sc(S(N)(=O)=O)nc2CC2CCCCC2)cc1C(C)(C)C`: the IC50 was found to be 251 nM.

With `CC(C)(C)NS(=O)(=O)c1ccc(-c2sc(C(=O)NN3CCOCC3)nc2CC2CCCCC2)c(Cl)c1Cl`, the IC50 was found to be 2 nM.

Regarding `CC1CCN(C(=O)c2nc(C(=O)NCC(C)(C)O)sc2-c2ccc(S(=O)(=O)NCC(F)(F)F)c3ccccc23)CC1`, the IC50 worked out at 39.8 nM.

For the molecule `CC(C)(C)NS(=O)(=O)c1ccc(-c2nc(C(=O)NC34CCC(C(=O)O)(CC3)CC4)oc2CC2CCCCC2)c2ccccc12`, 39.8 nM corresponded to half-maximal inhibition (IC50).

Molecule `CC(C)(CNC(=O)c1nc(CC2CCCCC2)c(-c2cc(C(C)(C)C)cc(C3(C)CC3)c2)o1)C(=O)O` registered an IC50 of 251 nM.

Regarding `CCC(C)(C)NS(=O)(=O)c1ccc(-c2sc(C(=O)NCC(C)(C)O)nc2C(=O)N2CCC(C)CC2)c(Cl)c1C`, the IC50 was 3.16 nM.

`CC(C)(C)NS(=O)(=O)c1ccc(-c2sc(C(=O)NC3CCS(=O)(=O)CC3)nc2CC2CCCCC2)c(Cl)c1Cl`: half-maximal inhibition (IC50) required 2 nM.

The molecule `CC1(NC(=O)c2cc(-c3sc(C(=O)NC4CCS(=O)(=O)CC4)nc3CC3CCCCC3)cc(C3(C)CC3)c2)COC1` registered an IC50 of 12.6 nM.

`CC(C)(CO)NS(=O)(=O)c1ccc(-c2sc(C(=O)N3CC4(CCS(=O)(=O)CC4)C3)nc2CC2CCCCC2)c2ccccc12` showed an IC50 of 79.4 nM.

With `CC(C)(O)c1cc(-c2sc(C(=O)N[C@H]3C[C@@H](C(=O)O)C3)nc2CC2CCCCC2)cc(C2(C)CC2)c1`, the IC50 stood at 63.1 nM.

Take `CC(C)(C)NS(=O)(=O)c1ccc(-c2sc(C(=O)N3CC(C(C)(C)C(=O)O)C3)nc2CC2CCCCC2)c(Cl)c1Cl`: the IC50 is 126 nM.

`CCCc1nc(C(=O)NCC(C)(C)O)sc1-c1ccc(S(=O)(=O)N[C@@H](C)C(F)(F)F)c2ccccc12` displayed a 50% inhibitory concentration (IC50) of 12.6 nM.

In turn, `CC(C)(C)NS(=O)(=O)c1ccc(-c2sc(C(=O)NC3CSC3)nc2CC2CCCCC2)c2ccccc12` displayed an IC50 of 2 nM.

Molecule `CC(C)(C)NS(=O)(=O)c1ccc(-c2sc(C(=O)NC3CCS(=O)(=O)CC3)nc2CC2CCCCC2)c2ccccc12` gave an IC50 of 1 nM.

In turn, `CC1CCN(C(=O)c2nc(C(=O)N3CC4(CCOCC4)C3)sc2-c2ccc(S(=O)(=O)NC(C)(C)C)c3ccccc23)CC1` showed a concentration for half-maximal inhibition (IC50) of 63.1 nM.

With `CC(C)(C#N)CNC(=O)c1nc(CC2CCCCC2)c(-c2ccc(S(=O)(=O)NC(C)(C)C)c3ccccc23)s1`, the half-maximal inhibitory concentration (IC50) turned out to be 2 nM.

For the molecule `C[C@H](NC(=O)c1cc(-c2sc(C(=O)NCC(C)(C)c3nnn[nH]3)nc2CC2CCCCC2)cc(C2(C)CC2)c1)C(F)(F)F`, the concentration for half-maximal inhibition (IC50) came to 31.6 nM.

`COC(c1nc(C(=O)NC2CCOCC2)sc1-c1cc(C(C)(C)C)cc(C2(C)CC2)c1)C1CCCCC1` (centres undefined) had an IC50 of 79.4 nM.

Molecule `CC1CCN(C(=O)c2nc(C(=O)N3CC4(CCS(=O)(=O)CC4)C3)oc2-c2ccc(S(=O)(=O)NC(C)(C)C)c3ccccc23)CC1` registered an IC50 of 2510 nM.

`CC(C)(C)NS(=O)(=O)c1ccc(-c2oc(C(=O)NC34CCC(C(=O)O)(CC3)CC4)nc2CC2CCCCC2)c2ccccc12` returned an IC50 of 12.6 nM.

`CC(C)(C)NS(=O)(=O)c1ccc(-c2sc(C(=O)NC3CCS(=O)(=O)CC3)nc2CC2CCCCC2)c2ccncc12` returned a concentration for half-maximal inhibition (IC50) of 12.6 nM.

`CC(C)(CCNC(=O)c1nc(CC2CCCCC2)c(-c2cc(C(C)(C)C)cc(C3(C)CC3)c2)s1)C(=O)O` returned an IC50 of 100 nM.

Molecule `CC(C)(C)NS(=O)(=O)c1ccc(-c2nc(C(=O)NC3CCS(=O)(=O)CC3)sc2CC2CCCCC2)c2ccccc12` had an IC50 of 1 nM.

As to `CC(O)c1c(S(=O)(=O)NC(C)(C)C)ccc(-c2sc(C(=O)N3CC4(CCS(=O)(=O)CC4)C3)nc2CC2CCCCC2)c1Cl` (centres undefined), the IC50 is 200 nM.

Molecule `CC(C)COc1cc(-c2sc(C(=O)N[C@H]3C[C@H](C(=O)O)C3)nc2CC2CCCCC2)cc(C(C)(C)C)n1` gave an IC50 of 39.8 nM.

`CCC1CCN(C(=O)c2nc(C(=O)NCC(C)(C)O)sc2-c2ccc(S(=O)(=O)NC(C)(C)C)c3ccccc23)CC1` returned an IC50 of 31.6 nM.

`CC(C)(C)NS(=O)(=O)c1ccc(-c2sc(C(=O)NC3CCC(C(=O)O)C3)nc2CC2CCCCC2)c2ccccc12` (centres undefined): the IC50 worked out at 3.98 nM.

`CC(C)(C)NS(=O)(=O)c1ccc(-c2sc(C(=O)NC3CC3)nc2CC2CCCCC2)c(Cl)c1Cl` came in with an IC50 of 10 nM.

The molecule `O=C(c1nc(CC2CCCCC2)c(-c2ccc(S(=O)(=O)NC3CS(=O)(=O)C3)c3ccccc23)s1)N1CC2(CCS(=O)(=O)CC2)C1` came in with an IC50 of 398 nM.

The molecule `CC(C)(C)NS(=O)(=O)c1ccc(-c2sc(C(=O)NC3CSC3)nc2CC2CCCCC2)c(Cl)c1Cl` registered a 50% inhibitory concentration (IC50) of 2 nM.
